# Laboratory results: the supplement of paper PMC10307832
# Compound: CN1CCN(CC1)C2=CC(=C(C=C2)NC3=NC=C4C(=N3)N(C5=CC=CC=C5C(=O)N4C)C)OC [XMD8-85] + O=C(CCCCCCC(=O)Nc1ccccc1)NO [Vorinostat] (partner 1 µM)
# Assay: relative viability (nuclei count vs DMSO), 5 days (fraction); higher = more cells survive
# Conditions: first compound 0.08 µM
# Outline: (§1)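 Nuclei were stained with Hoechst during a one-step fixation (final 0.05% Triton X-100, 1% formaldehyde, 1 ug/ml Hoechst) carried out 5 days after dosing, then counted on 4× images. The cells, lung cancer lines in 1536-well plates, had been dosed by pin tool the day after seeding with one drug alone or a fixed anchor-drug dose plus five library-drug doses (not always all listed) in √10 steps. Relative viability is the nuclei count in treated wells divided by that in vehicle wells, and each value is the median of duplicate plates.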
row,Cell Line,relative viability
1,NCI-H522,0.936
2,NCI-H596,0.517
3,NCI-H647,0.573
4,NCI-H650,0.447
5,NCI-H661,0.835
6,NCI-H727,1.09
7,NCI-H838,0.729
8,NCI-H1355,0.682
9,NCI-H1395,0.556
10,NCI-H1437,0.93
11,NCI-H1650,0.674
12,NCI-H1651,0.602
13,NCI-H1666,1.13
14,NCI-H1734,0.788
15,NCI-H1755,0.8
16,NCI-H1915,0.556

row,Cell Line,relative viability
1,NCI-H1944,0.581
2,NCI-H1975,0.708
3,NCI-H1993,0.559
4,NCI-H2009,0.716
5,NCI-H2023,0.405
6,NCI-H2085,0.774
7,NCI-H2087,0.668
8,NCI-H2126,0.772
9,NCI-H2170,0.914
10,NCI-H2228,0.523
11,NCI-H2342,0.767
12,NCI-H2347,0.603
13,NCI-H2405,0.993
14,NCI-H3122,1.02
15,PC-3 [JPC-3],0.963
16,PC-14,0.463

# Same assay, conditions: first compound 0.253 µM
row,Cell Line,relative viability
1,NCI-H522,0.877
2,NCI-H596,0.559
3,NCI-H647,0.746
4,NCI-H650,0.388
5,NCI-H661,0.788
6,NCI-H727,1.23
7,NCI-H838,0.739
8,NCI-H1355,0.564
9,NCI-H1395,0.668
10,NCI-H1437,0.879
11,NCI-H1650,0.596
12,NCI-H1651,0.562
13,NCI-H1666,1.03
14,NCI-H1734,0.84
15,NCI-H1755,0.799
16,NCI-H1793,0.665

row,Cell Line,relative viability
1,NCI-H1915,0.546
2,NCI-H1975,0.691
3,NCI-H1993,0.783
4,NCI-H2009,0.774
5,NCI-H2023,0.835
6,NCI-H2085,0.812
7,NCI-H2087,0.967
8,NCI-H2170,0.8
9,NCI-H2228,0.59
10,NCI-H2342,0.75
11,NCI-H2347,0.564
12,NCI-H2405,0.992
13,NCI-H3122,1.17
14,PC-3 [JPC-3],0.875
15,PC-14,0.566

# Same assay, conditions: first compound 0.8 µM
row,Cell Line,relative viability
1,NCI-H522,0.918
2,NCI-H596,0.495
3,NCI-H647,0.673
4,NCI-H650,0.433
5,NCI-H661,0.809
6,NCI-H727,1.17
7,NCI-H838,0.706
8,NCI-H1355,0.642
9,NCI-H1395,0.739
10,NCI-H1437,0.94
11,NCI-H1650,0.594
12,NCI-H1651,0.5
13,NCI-H1666,0.996
14,NCI-H1734,0.826
15,NCI-H1755,0.695
16,NCI-H1793,0.63

row,Cell Line,relative viability
1,NCI-H1915,0.485
2,NCI-H1944,0.544
3,NCI-H1975,0.706
4,NCI-H1993,0.839
5,NCI-H2085,0.762
6,NCI-H2087,0.806
7,NCI-H2126,0.795
8,NCI-H2170,0.792
9,NCI-H2228,0.585
10,NCI-H2342,0.72
11,NCI-H2347,0.59
12,NCI-H2405,1.08
13,NCI-H3122,1.03
14,PC-3 [JPC-3],0.68
15,PC-14,0.667

# Same assay, conditions: first compound 2.53 µM
row,Cell Line,relative viability
1,NCI-H522,0.884
2,NCI-H596,0.53
3,NCI-H647,0.632
4,NCI-H650,0.465
5,NCI-H661,0.743
6,NCI-H727,1.24
7,NCI-H838,0.641
8,NCI-H1355,0.655
9,NCI-H1395,0.887
10,NCI-H1437,0.751
11,NCI-H1650,0.578
12,NCI-H1651,0.546
13,NCI-H1666,0.947
14,NCI-H1734,0.768
15,NCI-H1755,0.761
16,NCI-H1793,0.916

row,Cell Line,relative viability
1,NCI-H1915,0.5
2,NCI-H1944,0.594
3,NCI-H1975,0.693
4,NCI-H1993,0.825
5,NCI-H2009,0.621
6,NCI-H2023,0.665
7,NCI-H2085,0.756
8,NCI-H2087,0.708
9,NCI-H2170,0.877
10,NCI-H2228,0.842
11,NCI-H2342,0.927
12,NCI-H2347,0.533
13,NCI-H2405,1.06
14,NCI-H3122,1.08
15,PC-3 [JPC-3],0.912

# Same assay, conditions: first compound 8 µM
row,Cell Line,relative viability
1,NCI-H522,0.654
2,NCI-H596,0.361
3,NCI-H647,0.346
4,NCI-H650,0.295
5,NCI-H661,0.588
6,NCI-H727,0.984
7,NCI-H838,0.409
8,NCI-H1355,0.545
9,NCI-H1395,0.406
10,NCI-H1437,0.482
11,NCI-H1650,0.253
12,NCI-H1651,0.449
13,NCI-H1666,0.92
14,NCI-H1734,0.56
15,NCI-H1755,0.692
16,NCI-H1793,0.497

row,Cell Line,relative viability
1,NCI-H1915,0.476
2,NCI-H1944,0.493
3,NCI-H1975,0.473
4,NCI-H1993,0.766
5,NCI-H2023,0.475
6,NCI-H2085,0.546
7,NCI-H2087,0.456
8,NCI-H2126,0.553
9,NCI-H2170,0.715
10,NCI-H2228,0.392
11,NCI-H2342,0.991
12,NCI-H2347,0.504
13,NCI-H2405,0.549
14,NCI-H3122,1.38
15,PC-3 [JPC-3],0.465
16,PC-14,0.327

# Compound: O=C(O)C(Cc1ccccc1[N+](=O)[O-])=NNc1nc(-c2ccc(Cl)c(Cl)c2)cs1 (mixture of isomers) [4EGI-1] + Cc1cc(Nc2cc(N3CCN(C)CC3)nc(Sc3ccc(NC(=O)C4CC4)cc3)n2)n[nH]1 [Tozasertib] (partner 0.1 µM)
# Assay: as above
# Conditions: first compound 0.5 µM
# Outline: as §1
row,Cell Line,relative viability
1,NCI-H522,0.558
